Assay results: PMC8893300, “A Dynamic Mass Redistribution Assay for the Human Sweet Taste Receptor Uncovers G-Protein Dependent Biased Ligands” (Frontiers in Pharmacology, 2022)
pEC50: −log10 of the molar value. Read-outs that look alike come from different tables or passages of the source. Marks after values point to notes of the source that are not given here.

Target: T1, human sweet taste receptor (hT1R2/hT1R3) (Homo sapiens, UniProt Q7RTX0+Q8TE23)
T1 construct: expressed in transfected cells
T1 sequence (Q8TE23 20-839): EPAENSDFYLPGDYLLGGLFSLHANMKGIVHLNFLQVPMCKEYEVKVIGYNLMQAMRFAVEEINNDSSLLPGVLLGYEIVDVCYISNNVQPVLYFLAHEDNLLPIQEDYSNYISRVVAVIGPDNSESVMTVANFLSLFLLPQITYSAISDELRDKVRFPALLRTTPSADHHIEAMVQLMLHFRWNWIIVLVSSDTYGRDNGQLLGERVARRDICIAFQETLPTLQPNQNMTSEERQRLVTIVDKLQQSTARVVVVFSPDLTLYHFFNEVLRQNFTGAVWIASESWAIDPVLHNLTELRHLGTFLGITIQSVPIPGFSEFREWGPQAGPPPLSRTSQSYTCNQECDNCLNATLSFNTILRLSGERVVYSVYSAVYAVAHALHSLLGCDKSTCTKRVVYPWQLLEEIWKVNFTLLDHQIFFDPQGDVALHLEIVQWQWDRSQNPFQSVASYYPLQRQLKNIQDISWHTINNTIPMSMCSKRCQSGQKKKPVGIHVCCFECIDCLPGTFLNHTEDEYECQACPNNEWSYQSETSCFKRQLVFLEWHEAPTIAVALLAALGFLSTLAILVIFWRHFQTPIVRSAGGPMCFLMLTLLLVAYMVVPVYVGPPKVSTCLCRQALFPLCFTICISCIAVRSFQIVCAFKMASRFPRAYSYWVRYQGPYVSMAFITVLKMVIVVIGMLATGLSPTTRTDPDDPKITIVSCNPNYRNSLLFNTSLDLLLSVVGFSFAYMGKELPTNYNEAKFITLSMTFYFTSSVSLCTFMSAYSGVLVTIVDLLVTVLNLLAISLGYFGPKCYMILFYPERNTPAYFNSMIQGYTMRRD
T1 sequence (Q7RTX0 21-852): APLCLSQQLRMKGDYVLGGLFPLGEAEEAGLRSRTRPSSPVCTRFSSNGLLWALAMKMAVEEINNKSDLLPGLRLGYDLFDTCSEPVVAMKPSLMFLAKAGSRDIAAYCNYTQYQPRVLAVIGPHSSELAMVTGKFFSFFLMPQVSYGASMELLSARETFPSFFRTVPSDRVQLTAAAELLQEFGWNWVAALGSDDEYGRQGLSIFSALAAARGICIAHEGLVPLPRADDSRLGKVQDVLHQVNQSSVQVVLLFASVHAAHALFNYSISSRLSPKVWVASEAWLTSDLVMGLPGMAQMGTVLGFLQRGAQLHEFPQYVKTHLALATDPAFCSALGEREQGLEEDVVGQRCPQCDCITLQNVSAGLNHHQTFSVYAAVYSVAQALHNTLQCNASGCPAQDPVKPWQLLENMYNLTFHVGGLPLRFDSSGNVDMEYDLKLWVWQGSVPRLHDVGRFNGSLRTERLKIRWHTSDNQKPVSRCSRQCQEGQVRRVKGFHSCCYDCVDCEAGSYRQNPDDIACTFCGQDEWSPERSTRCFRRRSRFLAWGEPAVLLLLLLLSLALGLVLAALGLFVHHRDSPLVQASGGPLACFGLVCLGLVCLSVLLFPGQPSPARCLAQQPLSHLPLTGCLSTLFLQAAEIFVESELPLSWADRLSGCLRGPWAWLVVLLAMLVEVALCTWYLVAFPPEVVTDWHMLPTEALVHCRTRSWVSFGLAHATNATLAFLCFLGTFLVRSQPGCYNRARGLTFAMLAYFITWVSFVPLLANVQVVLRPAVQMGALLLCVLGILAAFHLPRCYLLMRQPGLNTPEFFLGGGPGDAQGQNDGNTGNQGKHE
Assay: DMR assay (Epic reader) on R2/R3 U2OS cells, endogenous G proteins
Assay type: cell-based
Settings: for pEC50 / EC50: R2/R3 U2OS cells, peak DMR response; for pEC50: read-out: Activity in DMR assay EC50; for EC50: read-out: Activity in DMR assay pEC50 (converted); for ΔlogR DMR Mean: Table 2, operational model, logR minus sucralose logR; for Activity in DMR assay Emax: top asymptote of dose-response normalized to 1 mM sucralose
Description: The plates were incubated in the tissue culture hood for 20 min to allow cells to settle evenly at the bottom of the microplate and further cultured at 37°C in an atmosphere of 5% CO2 for 18–24 h. The next day, the cells were subjected to functional analysis using DMR. […] When indicated, data for agonist dose-responses were normalized to data obtained with a maximum concentration of sucralose (1 mM) and then fitted and plotted using GraphPad Prism (San Diego, CA) and non-linear regression analysis.
This value, that we termed pEC50Ratio (sucralose) or pEC50R (sucralose), was calculated with EC50 values obtained in the two assay systems. This transformation also allowed determination of an average and a standard error for the pEC50R (sucralose). The two sets of data (DMR and FLIPR data) were then analyzed with an un-paired t-test (α = 0.05). To calculate relative efficacy bias between the two assays, we captured the top asymptote value from each activity-normalized dose-response curve, as provided by the curve fit, calculated an average and a standard deviation (sd) for each agonist and then analyzed the data pairs with an un-paired t-test (α = 0.05). […] The following steps were followed: 1) Using the PRISM software, we re-analyzed each ligand’s dose-response data obtained in each assay with non-linear regression and the users-defined equation “New Operational Model with TauKa ratios” and retrieved logR values from the fits. 2) Subtracted each ligand’s logR value with that of our standard, the sucralose logR value, obtained from the same data set (each ligand dose-response assay data used in this analysis was accompanied with a sucralose dose-response ran on the same day), producing the ΔlogR value for leach ligand in each assay. 3) Calculated the mean and SEM from ΔlogR replicates (from three to nine independent dose-response analysis, in the two different assays). 4) Calculated ΔΔlogR values by subtracting the averaged ligands’ ΔlogR FLIPR values with the averaged ligands’ ΔlogR DMR values.

Row | pEC50 | EC50 [µM] | ΔlogR DMR Mean | Activity in DMR assay Emax | SMILES
1 | 5.11 | 7.29 | 1.15 | 99* | COC(=O)[C@H](Cc1ccccc1)NC(=O)[C@H](CC(=O)O)NCCC(C)(C)C [Neotame]
2 | 5.66 | 2.07 | 1.84 | 128 | CC(C)Oc1ccc(NC(=S)NCc2cccs2)cc1 [S5227]
3 | 6.15 | 0.637 | 2.52 | 143* | CC(C)Oc1ccc(NC(=S)NCc2ccc[nH]2)cc1 [S819]
